# Publication PMC12165925 (Natural Products and Bioprospecting, 2025)
# Columns and labels:
# [1] = target: T1, SARS-CoV-2 3CL^pro (Severe acute respiratory syndrome coronavirus 2, UniProt P0DTD1)
# [2] = parameters: method as in PMID 25980422; settings: cited from earlier work
# [3] = test system: BEL-7402 cells; test: Maximum non-toxic concentration in BEL-7402 cells (CPE monitoring)
# [4] = test system: SARS-CoV-2-S pseudovirus; test: microbe, parasite or virus in culture; format: cell-based; settings: for inhibition of attachment of SARS-CoV-2-S pseudovirus to ACE2-expressing HEK293T cells: 5 µM and 50 µM, p < 0.001; for IC50: Pseudovirus
# [5] = test system: HCoV-229E; test: Anti HCoV-229E activity in BEL-7402 cells (CPE, RT-qPCR); format: cell-based
# [6] = target: ACE2 (Homo sapiens, UniProt Q9BYF1); test: Surface plasmon resonance, immobilized ACE2; format: binding; settings: for kon / koff: SPR; for kon: read-out: binding rate constant (ka), ACE2; for koff: read-out: dissociation rate constant (kd), ACE2
# Method: Binding affinities between compounds and ACE2 or S-RBD were evaluated using a Biacore T200 instrument (Cytiva, UK). […] A mixture of 50 mM NHS and 200 mM EDC was injected to activate the surface, after which 20 µg/mL ACE2 was immobilized to achieve 15,020 RU, and 30 µg/mL S-RBD reached 7193 RU. Surface blocking was performed using 1 M ethanolamine at pH 8.5. Delphinidin with 5% DMSO was injected into the flow system and analyzed for 120 s, followed by 300 s of dissociation. Glycine–HCl at pH 3.0 was used for surface regeneration between analyte injections. Data were processed using double reference subtraction and solvent corrections. Binding affinities were determined using a Langmuir 1:1 binding model in Biacore Evaluation software (Cytiva, UK).
# [7] = test system: hACE2-HEK293T cells; test: Cytotoxicity, CCK-8, hACE2-HEK293T cells
# [8] = Cytotoxicity, CCK-8, hACE2-HEK293T cells; settings: human
# [9] = target: S-RBD (Severe acute respiratory syndrome coronavirus 2, UniProt P0DTC2); test: Surface plasmon resonance, immobilized S-RBD; format: binding, SARS-CoV-2; settings: SPR; for Kd: Langmuir 1:1 binding model; for kon: read-out: ka, S-RBD
# [10] = target: cathepsin L (CTSL) (Homo sapiens, UniProt P07711); test: Host protease inhibitory activity assay, CTSL; settings: 50 µM, p < 0.001
# Method: (§1) Similarly, CTSL (Sino Biological, Beijing, China) was diluted, activated, and incubated with the test compounds before Z-Phe-Arg-AMC was added, with fluorescence measurements taken under the same conditions. For CTRC (Novoprotein, Suzhou, China), a 5 µg/mL solution was incubated with the test compounds in Tris buffer, then activated with trypsin (Sigma, Saint Louis, USA). The reaction was initiated using 100 µM Succinyl-Ala-Ala-Pro-Phe-p-nitroanilide (NJPeptide Biotech, Nanjing, China), and absorbance was measured at 405 nm.
# [11] = target: T1, SARS-CoV-2 3CL^pro; test: biochemical; format: binding
# [12] = test system: Vero-E6 cells; test: Cytotoxicity, CCK-8, Vero-E6 cells; settings: at 200 µM
# [13] = Cytotoxicity, CCK-8, Vero-E6 cells; settings: African green monkey
# [14] = target: T1, SARS-CoV-2 3CL^pro; test: biochemical
# [15] = target: T2, chymotrypsin C (CTRC) (Homo sapiens, UniProt Q99895); test: Host protease inhibitory activity assay, CTRC; settings: 50 µM, p < 0.001
# T2 sequence (Q99895 30-268): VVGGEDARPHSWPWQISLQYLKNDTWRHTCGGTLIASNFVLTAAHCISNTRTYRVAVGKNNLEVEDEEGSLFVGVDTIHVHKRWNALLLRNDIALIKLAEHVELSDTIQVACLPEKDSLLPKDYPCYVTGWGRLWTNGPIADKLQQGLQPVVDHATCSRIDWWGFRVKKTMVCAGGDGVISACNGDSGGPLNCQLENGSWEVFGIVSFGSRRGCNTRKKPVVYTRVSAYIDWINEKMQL
# Method: as §1
# [16] = parameters: method as in PMID 31557009; settings: cited from earlier work
# [17] = target: cathepsin B (CTSB) (Homo sapiens, UniProt P07858); test: Host protease inhibitory activity assay, CTSB; settings: 50 µM
# Method: The activities of cathepsin B (CTSB), cathepsin L (CTSL), and chymotrypsin C (CTRC) were assessed following established methods [35, 36]. […] After further dilution to 500 pM, CTSB was incubated with the test compounds for 30 min, followed by the addition of 5 µM Z-Phe-Arg-AMC (NJPeptide Biotech, Nanjing, China) to initiate the reaction. Fluorescence was recorded using a Cytation 5 reader at excitation/emission wavelengths of 360/460 nm.
# Sequence of ACE2 (Q9BYF1 18-805): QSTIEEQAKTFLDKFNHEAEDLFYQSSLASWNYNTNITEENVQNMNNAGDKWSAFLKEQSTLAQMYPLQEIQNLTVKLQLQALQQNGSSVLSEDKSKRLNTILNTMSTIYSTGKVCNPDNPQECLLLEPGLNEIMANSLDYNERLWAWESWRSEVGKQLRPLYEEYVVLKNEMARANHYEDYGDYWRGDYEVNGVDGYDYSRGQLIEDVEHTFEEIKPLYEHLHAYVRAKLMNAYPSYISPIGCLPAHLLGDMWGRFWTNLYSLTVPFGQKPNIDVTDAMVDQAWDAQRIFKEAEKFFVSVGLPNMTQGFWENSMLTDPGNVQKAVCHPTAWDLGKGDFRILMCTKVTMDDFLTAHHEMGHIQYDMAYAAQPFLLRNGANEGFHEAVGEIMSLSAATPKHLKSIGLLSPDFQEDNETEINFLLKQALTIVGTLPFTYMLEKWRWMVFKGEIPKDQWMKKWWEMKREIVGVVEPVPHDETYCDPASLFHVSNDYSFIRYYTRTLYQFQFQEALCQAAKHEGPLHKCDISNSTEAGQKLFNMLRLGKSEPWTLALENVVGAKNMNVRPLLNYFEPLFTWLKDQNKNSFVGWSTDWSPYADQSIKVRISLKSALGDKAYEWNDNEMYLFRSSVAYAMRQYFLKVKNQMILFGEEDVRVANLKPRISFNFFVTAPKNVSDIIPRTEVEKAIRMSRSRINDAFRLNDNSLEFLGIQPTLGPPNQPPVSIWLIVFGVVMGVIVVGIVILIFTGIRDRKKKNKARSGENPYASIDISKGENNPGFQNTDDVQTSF
# Sequence of cathepsin L (CTSL) (P07711 114-333): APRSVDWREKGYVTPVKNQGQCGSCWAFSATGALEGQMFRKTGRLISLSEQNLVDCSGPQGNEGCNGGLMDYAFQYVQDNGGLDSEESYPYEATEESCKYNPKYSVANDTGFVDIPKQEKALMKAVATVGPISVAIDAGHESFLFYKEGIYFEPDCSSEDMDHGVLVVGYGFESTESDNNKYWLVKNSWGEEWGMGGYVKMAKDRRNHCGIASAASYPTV
smiles,measurement,setting,value
"C[C@@H]1O[C@@H](O[C@H]2[C@H](OC(=O)[C@]34CCC(C)(C)C[C@H]3C3=CC[C@@H]5[C@@]6(C)C[C@H](O)[C@H](O[C@@H]7O[C@H](CO)[C@@H](O)[C@H](O)[C@H]7O)C(CO)(CO)[C@@H]6CC[C@@]5(C)[C@]3(C)C[C@H]4O)OC[C@H](O)[C@@H]2O)[C@H](O)[C@H](O)[C@H]1O[C@@H]1OC[C@@H](O)[C@H](O)[C@H]1O [DPD, Deapio platycodin D]",inhibition of SARS-CoV-2 3CL^pro,[1],lack of inhibition
same,Tmax,[2]; oral administration ref 60,under 1 h
same,elimination from tissues,[2]; particularly lung tissue ref 60,slow elimination
same,maximum non-toxic concentration (MNTC),[3],12.50 µM
same,"selectivity index (SI), [CC50]/[IC50]",[4],25.73
same,inhibition of attachment of SARS-CoV-2-S pseudovirus to ACE2-expressing HEK293T cells,[4],significantly inhibited
same,IC50,[4],1.38 ± 0.46 µM
same,antiviral activity against HCoV-229E,"[5]; 12.50 µM (MNTC), BEL-7402 cells, RT-qPCR",significant antiviral activity
same,IC50,"[5]; Human coronavirus 229E, Bel-7402, read-out: IC50, HCoV-229E replication",3.3 µM
same,Kd,[6],358 µM
same,kon,[6],54.6 M⁻¹ s⁻¹
same,koff,[6],0.0196 s⁻¹
same,cytotoxicity against hACE2-HEK293T cells,[7]; 5 µM,no cytotoxicity
same,cytotoxicity against hACE2-HEK293T cells,"[7]; 50 µM, p < 0.001",had cytotoxicity
same,CC50,[8],35.5 ± 1.77 µM
same,Kd,[9],379 µM
same,kon,[9],103 M⁻¹ s⁻¹
Oc1cc(O)c2cc(O)c(-c3cc(O)c(O)c(O)c3)[o+]c2c1 [Delphinidin],"IC50 shift, 3 vs 30 min pre-incubation",[1],2.85 times
same,inhibition mechanism on SARS-CoV-2 3CL^pro,[1],non-competitive inhibitor
same,inhibition of CTSL,[10],strong inhibitory effect
same,Kd,[11],24.5 µM
same,kon,"[11]; read-out: Ka, SARS-CoV-2 3CL^pro",296 M⁻¹ s⁻¹
same,cytotoxicity on Vero-E6 cells,[12],no toxicity
same,CC50 at 24 h,[13],> 200 µM
same,"selectivity index (SI), [CC50]/[IC50]",[4],> 4.41
same,inhibition of attachment of SARS-CoV-2-S pseudovirus to ACE2-expressing HEK293T cells,[4],significantly inhibited
same,IC50,[4],45.4 ± 7.09 µM
same,Ki,[14],0.93 µM
same,IC50,"[14]; IC50, SARS-CoV-2 3CL^pro",1.54 ± 0.38 µM
same,IC50,"[14]; IC50, SARS-CoV-2 3CL^pro (TDI)",4.39 ± 0.53 µM
same,inhibition of CTRC,[15],strong inhibitory effect
same,Kd,[6],6.64 µM
same,kon,[6],309 M⁻¹ s⁻¹
same,koff,[6],0.00205 s⁻¹
same,bioavailability,[16],low
same,inhibition of CTSB,[17],did not inhibit
same,cytotoxicity against hACE2-HEK293T cells,[7]; screening concentrations 5 µM and 50 µM,not significantly cytotoxic
same,CC50,[8],> 200 µM
same,"kd, S-RBD",[9],1.14 × 10^–3 s^−1
same,Kd,[9],2.98 µM
same,kon,[9],383 M⁻¹ s⁻¹
